Here are results for 4 substances from PMC6920923, “Improving In Vivo Brain Delivery of Monoclonal Antibody Using Novel Cyclic Peptides” (Pharmaceutics, 2019).

“Also recorded” adds a separate entry of the source.

The test system of one assay is brains of C57BL/6 mice. Nature of the assay: In vivo brain delivery of IRdye800CW-IgG mAb (NIRF quantification). The settings on record: n = 3. The method, then:
The activity of each peptide in enhancing BBB penetration was evaluated by delivering IRdye800CW donkey anti-goat IgG mAb in C57BL/6 mice; the amounts of mAb in the brain were determined using near infrared fluorescence (NIRF) imaging. Each group contains 3 mice per group (n = 3) with a mixture of male and female mice, selected randomly for each arm of the study. The injection solution was prepared by adding 600 µL PBS into 0.5 mg lyophilized IgG mAb; then, approximately 1.5 mg lyophilized peptide was added into the mixture yielding the injectable formulation. A 100 µL solution of a mixture containing IgG mAb (21.6 nmol/kg) along with 13 µmol/kg peptide was administered via tail vein. As a control, 100 µL of IgG mAb alone was administered via i.v. route. After the delivered molecules had been circulating for 15 min, the mice were sacrificed; then, a mixture of PBS with 0.5% Tween-20 was administered for cardiac perfusion to remove the blood and delivered molecules from the brain microvessels. The brain and other organs such as lung, heart, spleen, liver, and kidney were harvested and rinsed with PBS. The isolated organs were scanned with Odyssey® CLx for mAb quantification.
The brain deposition of IgG mAb was also quantified by NIRF imaging in brain homogenates. The isolated brains were mechanically homogenized in 2.0 mL of PBS. To make the standard solutions, IRDye800CW IgG mAb stock solution (70 µg/mL) was prepared; it was then diluted with various amounts of PBS to make six different mAb concentrations. To generate a calibration curve, the brain homogenate (200 µL) was aliquoted out to a 96-well plate. A total of 10 µL of each concentration of IgG mAb was added to three different wells of blank brain homogenates. The standard spiked homogenates were at a range of 10–200 ng/mL IgG mAb in brain homogenate. The wells were scanned using the Odyssey® CLx scanner, and the signal intensities vs. concentrations of mAb per gram of brain were used to generate a calibration curve.
ANOVA with Student–Newman–Keuls was used to compare the data for determining statistical significance for IgG mAb deposition in the brains. A p-value of less than 0.05 was used as a criterion for a significant difference in data comparison. Numeric results are presented as: mean ± SEM.
A calibration curve was generated to determine the amount of IgG mAb in the brain by spiking blank brain homogenates with a concentration range from 10 to 200 ng/mL, and good linearity with R^2 ≥ 0.98 was achieved. […] The average amounts of IgG mAb in the brains of HAV6-treated and control animals were 3.4 ± 0.4 and 4.0 ± 0.5 pmol/g brain, respectively. In contrast, the average amounts of mAb in the brains of cyclic HAVN1- and HAVN2-treated mice were 8.6 ± 0.5 and 8.8 ± 0.6 pmol/g brain, respectively. The BBB modulatory activities of ADTC5, linear ADTHAV, and cyclic ADTHAV were also compared to the control (Figure 5). […] The average brain deposition of IgG mAb were 11.8 ± 0.5, 15.7 ± 0.8, and 13.3 ± 0.7 pmol/g brain for linear ADTHAV, cyclic ADTHAV, and ADTC5, respectively.

Another assay has as its target T1, EC1 domain of E-cadherin (Homo sapiens, UniProt P12830).
T1 sequence (P12830 155-262 limits assumed): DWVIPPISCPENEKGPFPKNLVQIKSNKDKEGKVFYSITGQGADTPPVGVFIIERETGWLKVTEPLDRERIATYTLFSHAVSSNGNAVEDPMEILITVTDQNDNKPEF
The settings on record: NMR studies; ref [26]; cited from earlier work. An excerpt: Cadherin peptides interrupt the cadherin–cadherin interactions by binding to the extracellular domains of cadherins allowing delivered molecules to pass through the […] of the BBB. […] Using the X-ray structure of C-cadherin as a model, it is seen that the cadherin molecules can form cis- and trans-interactions with each other in a homotypic fashion. The cis-cadherin interactions were formed via binding of the EC1 domain from one ca ...

For assay [1], the system named is brain (C57BL/6 mice). The settings on record: recent studies, ref not given; cited from earlier work. An excerpt:
Treating brain diseases is a challenge as it is difficult to deliver drugs through the BBB into the brain. As many approaches to solve this problem have failed clinically, it is important to investigate new methods to improve brain delivery of molecules for diagnosing and treating brain diseases. This study was focused on designing, synthesizing, and evaluating new cyclic peptides for modulating the BBB to increase paracellular protein delivery into the brain.

Assay [2] concerns brain (C57BL/6 mice). Particulars: peptide 13 µmol/kg, albumin 21.6 nmol/kg; ref not given; cited from earlier work. An excerpt: Treating brain diseases is a challenge as it is difficult to deliver drugs through the BBB into the brain. As many approaches to solve this problem have failed clinically, it is important to investigate new methods to improve brain delivery of molecules for diagnosing and treating brain diseases. This study was focused on designing, synthesizing, and evaluating new cyclic peptides for modulating the BBB to increase paracellular protein delivery into the brain. […] It is proposed that the rigidity imposed on the peptide backbone of the cyclic peptide reduced the ensemble ...

The test system of assay [3] is BBB. Particulars: ref [22], cited from earlier work. From the text: Treating brain diseases is a challenge as it is difficult to deliver drugs through the BBB into the brain. As many approaches to solve this problem have failed clinically, it is important to investigate new methods to improve brain delivery of molecules for diagnosing and treating brain diseases. This study was focused on designing, synthesizing, and evaluating new cyclic peptides for modulating the BBB to increase paracellular protein delivery into the brain. […] This is because it is dangerous to keep the BBB open for a long period of time, allowing unwanted molecules to enter the brain. However, it is necessary to maintain the opening for an adequate amount of time to allow the delivered molecule to enter the brain with the necessary dose. For example, HAV6 has an opening window of less than 1 h to allow a small molecule such as IRdye-R800 and gadopentetic acid (Gd-DTPA) to enter the brain, while ADTC5 has a durati ...

Assay [4] relates to BBB. The settings on record: cited from earlier work. The method, then:
The duration of time of the BBB opening is an important factor to consider for using cadherin peptides to deliver molecules to the brain. This is because it is dangerous to keep the BBB open for a long period of time, allowing unwanted molecules to enter the brain. However, it is necessary to maintain the opening for an adequate amount of time to allow the delivered molecule to enter the brain with the necessary dose. For example, HAV6 has an opening window of less than 1 h to allow a small molecule such as IRdye-R800 and gadopentetic acid (Gd-DTPA) to enter the brain, while ADTC5 has a durati ...

Assay [5] has as its system brain. Particulars: cited from earlier work. The method, then:
(§1) Several attempts have been made to overcome this challenge using various invasive and non-invasive methods. Intracerebral ventricular (ICV) delivery is an invasive injection technique in which drug substances are administered directly into the cerebrospinal fluid in cerebral ventricles. Alternatively, many non-invasive methods have been investigated in vivo with various levels of success using receptor-mediated drug delivery systems, liposomes, microbubble-enhanced diagnostic ultrasound (MEUS), and nanoparticles. The most successful non-invasive method for delivering drugs to ...

The subject of assay [6] is medulloblastoma brain tumor. Particulars: ref [24], cited from earlier work. The method, then: as §1
The test system of assay [7] is MDCK cell monolayers / in vivo BBB. The settings on record: vs ADTC1 or ADTC5; ref [20]; cited from earlier work. From the text:
(§2) This study was also aimed at developing cyclic ADTHAV peptide by combining important residues from the ADT peptide (i.e., ADTC5) and HAV peptide (i.e., HAV6). Because ADTC5 and HAV6 bind at different sites on the EC1 domain, combining the two active sequences could provide synergistic activity form both parent peptides on cyclic ADTHAV. In this case, cyclic ADTHAV contains the Thr-Pro-Pro-Val sequence from ADTC5 and Ser-His-Ala-Val sequence from HAV6. The hypothesis is that the combined sequence enhances BBB modulatory activity better than the parent ADTC5 and HAV6. The selection of the Thr-Pr ...

The subject of a further assay is MDCK cell monolayers. Particulars: ref [19], cited from earlier work. The method, then: Previously, cyclic cHAVc1 (cyclo(1,8)Ac-CSHAVASC-NH2) and cHAVc3 (cyclo(1,6)Ac-CSHAVC-NH2) were prepared and compared to a linear HAV4 (Ac-SHAVAS-NH2) in modulating the intercellular junctions in vitro and in vivo [19]. […] An alanine scanning study was carried out to evaluate the role of each amino acid in HAV6 peptide, and the biological activity of each alanine mutant peptide was evaluated in lowering the TEER values of MDCK cell monolayers. Mutation of the Ser1 to Ala1 residue reduced the junction modulatory activity of the HAV6 mutant; ...

For assay [8], the system named is brain. Particulars: MRI, mice; ref [19]; cited from earlier work. The method, then: Previously, cyclic cHAVc1 (cyclo(1,8)Ac-CSHAVASC-NH2) and cHAVc3 (cyclo(1,6)Ac-CSHAVC-NH2) were prepared and compared to a linear HAV4 (Ac-SHAVAS-NH2) in modulating the intercellular junctions in vitro and in vivo [19].
In assay [9] the test system is BBB. Particulars: disulfide cyclic peptides vs parent linear peptides; ref [19],[20]; cited from earlier work. An excerpt:
The goal of this study was to design and synthesize novel cyclic peptides derived from HAV6 and ADTC5 peptides to improve their BBB modulatory activity and selectivity by forming a peptide bond from the N- to C-termini (Table 1, Figure 1). The hypothesis is that the formation of N-to-C-termini cyclic peptides increases the backbone rigidity of the peptide to improve binding affinity and selectivity for the EC1 domain of cadherin as well as improving plasma stability of the cyclic peptide compared to its parent linear peptide. Previously, cHAVc3 and ADTC5 cyclic peptides were formed using a dis ...

For assay [10], the system named is primary brain endothelial cell monolayers. Particulars: ref [33] Bocsik et al.; cited from earlier work.
Description: as §2

Turning to “Ac-SHAVSS-NH2 [HAV6, parent linear cadherin peptide]”, in the assay on brains of C57BL/6 mice (IgG mAb 21.6 nmol/kg with or without 13 µmol/kg peptide, i.v. tail vein, 15 min circulation, PBS/0.5% Tween-20 perfusion, NIRF (Odyssey CLx) of brain homogenate, mean ± SEM), the “amount of IgG mAb in the brain (brain deposition)” value was 3.4 ± 0.4 pmol/g brain. In addition, in the assay with brains of C57BL/6 mice (IgG mAb 21.6 nmol/kg, peptide 13 µmol/kg i.v., 15 min, ANOVA Student–Newman–Keuls), the “brain delivery of IgG mAb compared to control (IgG mAb alone), in words” value is given as “did not enhance brain delivery of IgG mAb compared to the control”. In addition, on EC1 domain of E-cadherin, the “binding site on EC1 domain, in words” value was “bind to the EC1 domain of E-cadherin at the interface of cis-cadherin interactions”. Also, in the assay on brain (C57BL/6 mice) [1], the “brain delivery of 15 kDa lysozyme vs control, in words” value is “significantly enhanced the brain delivery of 15 kDa lysozyme compared to the control”. For the same substance, the “brain delivery of albumin vs control, in words” value in the assay on brain (C57BL/6 mice) [2] is reported as “did not significantly enhance brain delivery of albumin; also recorded: no significant enhancement of albumin brain deposition”. In addition, the “BBB penetration of galbumin with 10-min delay after peptide, in words” value with BBB [3] (10-min delay between peptide and galbumin) is reported as “does not allow the galbumin to cross the BBB”. The “brain deposition of galbumin, in words” value with BBB [3] (galbumin 600 nmol/kg, living mice, MRI) is recorded as “significant brain deposition of galbumin”. Besides, in the assay on BBB [3] (high dose galbumin), the “BBB penetration of 65 kDa galbumin, delivered together with peptide, in words” value is on record as “can increase the BBB penetration of galbumin”. Besides, the “BBB window of opening for galbumin” value in the assay with BBB [4] (65 kDa galbumin, ref [22] for HAV6 galbumin data, none printed for ADTC5) is less than 10 min. Moreover, the “opening window of BBB for small molecule (IRdye-R800 and Gd-DTPA)” value in the assay with BBB [4] (IRdye-R800 and Gd-DTPA, ref [20],[21]) is “less than 1 h”. Moreover, the “brain delivery of various molecules, in words” value in the assay on brain [5] (HAV6 and ADTC5 collectively, 14C-mannitol, PEG, daunomycin, R800, Gd-DTPA, cLABL, cIBR7, galbumin etc., ref [18],[19],[20],[21],[22],[23]) is listed as “increase the brain delivery of various molecules”. Besides, the “oral and brain deliveries of eflornithine, in words” value in the assay on brain [5] (rats, ref [25]) is reported as “simultaneously increased”. In addition, the “survival and tumor growth, in words” value in [6] (adenanthin + HAV6 vs adenanthin alone or placebo) is “increased survival and suppressed tumor growth”. For the same substance, in assay [6] (mice with medulloblastoma brain tumor), the “delivery of adenanthin into brain, in words” value is “significantly improve the delivery of an anticancer drug, adenanthin, into the brains of mice”.

“cyclo(1,6)Ac-CDTPPC-NH2 (disulfide) [ADTC6, earlier cyclic ADT peptide]”: the “activity of ADT peptide, in words” value in assay [7] is recorded as “lowered the activity of ADTC6 compared to ADTC5”.

“cyclo(1,6)Ac-CSHAVC-NH2 (disulfide) [cHAVc3, earlier disulfide cyclic HAV peptide]”: the “binding site on EC1 domain, in words” value on EC1 domain of E-cadherin is “bind to the EC1 domain of E-cadherin at the interface of cis-cadherin interactions”. Also, the “lowering of TEER values of MDCK cell monolayers vs HAV4, in words” value in the assay on MDCK cell monolayers (TEER) is on record as “better than a linear HAV4”. Moreover, the “junction modulatory activity in MDCK cell monolayers, in words” value with MDCK cell monolayers (compared to HAV4 (and cHAVc1)) is “more active compared to HAV4 and cHAVc1”. Moreover, the “in vivo brain delivery of Gd-DTPA vs HAV4, in words” value in the assay with brain [8] was “better than a linear HAV4”. Further, in the assay with BBB [9], the “BBB modulatory activity and plasma stability vs parent linear peptides, in words” value was “enhanced BBB modulatory activity and plasma stability compared to their parent linear peptides”.

With “Ac-ADTPPV-NH2 [ADT6, linear ADT peptide of Bocsik et al]”, the “disruption of intercellular junctions (TEER), in words” value in [10] was “reversibly disrupts the intercellular junctions of primary brain endothelial cell monolayers”.
